Measurements: patent US20210085640A1, “ACYLATED CATECHIN POLYPHENOLS AND METHODS OF THEIR USE FOR THE TREATMENT OF CANCER” (Flagship Pioneering Innovations V, Inc., priority 2018, published 2021)

Key:
Format in all cases: cell-based
[1] = test system: Daudi lymphoma cancer cells; experiment: Cancer cell survival (CellTiter-Glo), Daudi; conditions: Homo sapiens, 72 h
In short: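 Daudi cells (4×10^3/well) were exposed for 72 h at 37 °C to nine concentrations of compound, added as 10× solutions spanning 1 μM–10 mM (fatty acids) or 100 nM–1 mM (others). CellTiter-Glo luminescence gave % survival versus untreated, medium-blank corrected; IC50 derived.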

MCF7 breast cancer cells = experiment: Cancer cell survival (CellTiter-Glo), MCF7; conditions: Homo sapiens, 72 h
In short: (§1)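 Luminescent ATP read-out (CellTiter-Glo) after 72 h compound exposure at 37 C/5% CO2. Survival % is calculated against untreated cells minus medium background, and IC50 is taken from nine concentrations run in triplicate. Plating density was 4×10^3 cells/well with overnight attachment beforehand.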

[2] = test system: PC-3 prostate cancer cells; experiment: Cancer cell survival (CellTiter-Glo), PC-3; conditions: Homo sapiens, PC-3 cells, 72 h
In short: as §1

A549 lung cancer cells = experiment: Cancer cell survival (CellTiter-Glo), A549; conditions: Homo sapiens, 72 h
In short: as §1

A-431 skin cancer cells = experiment: Cancer cell survival (CellTiter-Glo), A-431; conditions: Homo sapiens, A-431 cells, 72 h
In short: as §1

T24 bladder cancer cells = experiment: Cancer cell survival (CellTiter-Glo), T24; conditions: Homo sapiens
In short: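 Viability by CellTiter-Glo after 72 h compound treatment of T24 bladder cancer cells (4×10^3/well, plated the night before), nine concentration levels in triplicate. Percent survival normalised to untreated cells minus medium background, from which IC50 was determined.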

AGS stomach cancer cells = experiment: Cancer cell survival (CellTiter-Glo), AGS
In short: as §1

[3] = test system: HCT 116 colorectal cancer cells; experiment: Cancer cell survival (CellTiter-Glo), HCT 116; conditions: Homo sapiens, HCT 116 cells, 72 h
In short: as §1

[4] = 101 nM, read-out: Cell survival at given concentration
[5] = 318 nM, read-out: Cell survival at given concentration
[6] = 1 μM, read-out: Cell survival at given concentration
[7] = 3 μM, read-out: Cell survival at given concentration
[8] = 10 μM, read-out: Cell survival at given concentration
[9] = 32 μM, read-out: Cell survival at given concentration
[10] = 100 μM, read-out: Cell survival at given concentration
[11] = 316 μM, read-out: Cell survival at given concentration
[12] = 1000 μM, read-out: Cell survival at given concentration

O=c1cc(-c2ccc(O)c(O)c2)oc2cc(O)cc(O)c12 [luteolin]
viability at 0.101 µM [1, 4]: 100%
viability at 0.318 µM [1, 5]: 102%
viability at 1 µM [1, 6]: 103%
viability at 3 µM [1, 7]: 106%
viability at 10 µM [1, 8]: 85%
viability at 32 µM [1, 9]: 33%
viability at 100 µM [1, 10]: 10%
viability at 316 µM [1, 11]: 6%
viability at 1000 µM [1, 12]: 16%
IC50 ([1]; Table 4.1): 21.6 µM
viability at 0.101 µM (MCF7 breast cancer cells; [4]): 96%
viability at 0.318 µM (MCF7 breast cancer cells; [5]): 99%
viability at 1 µM (MCF7 breast cancer cells; [6]): 103%
viability at 3 µM (MCF7 breast cancer cells; [7]): 104%
viability at 10 µM (MCF7 breast cancer cells; [8]): 108%
viability at 32 µM (MCF7 breast cancer cells; [9]): 60%
viability at 100 µM (MCF7 breast cancer cells; [10]): 31%
viability at 316 µM (MCF7 breast cancer cells; [11]): 26%
viability at 1000 µM (MCF7 breast cancer cells; [12]): 24%
IC50 (MCF7 breast cancer cells; Table 5.1): 36 µM
viability at 0.101 µM [2, 4]: 100%
viability at 0.318 µM [2, 5]: 99%
viability at 1 µM [2, 6]: 100%
viability at 3 µM [2, 7]: 102%
viability at 10 µM [2, 8]: 96%
viability at 32 µM [2, 9]: 74%
viability at 100 µM [2, 10]: 52%
viability at 316 µM [2, 11]: 23%
viability at 1000 µM [2, 12]: 23%
IC50 ([2]; Table 8.1): 93.5 µM
viability at 0.101 µM (A549 lung cancer cells; [4]): 96%
viability at 0.318 µM (A549 lung cancer cells; [5]): 98%
viability at 1 µM (A549 lung cancer cells; [6]): 100%
viability at 3 µM (A549 lung cancer cells; [7]): 100%
viability at 10 µM (A549 lung cancer cells; [8]): 101%
viability at 32 µM (A549 lung cancer cells; [9]): 84%
viability at 100 µM (A549 lung cancer cells; [10]): 37%
viability at 316 µM (A549 lung cancer cells; [11]): 13%
viability at 1000 µM (A549 lung cancer cells; [12]): 10%
IC50 (A549 lung cancer cells; Table 7.1): 74.2 µM
viability at 0.101 µM (A-431 skin cancer cells; [4]): 101%
viability at 0.318 µM (A-431 skin cancer cells; [5]): 99%
viability at 1 µM (A-431 skin cancer cells; [6]): 102%
viability at 3 µM (A-431 skin cancer cells; [7]): 101%
viability at 10 µM (A-431 skin cancer cells; [8]): 99%
viability at 32 µM (A-431 skin cancer cells; [9]): 61%
viability at 100 µM (A-431 skin cancer cells; [10]): 39%
viability at 316 µM (A-431 skin cancer cells; [11]): 20%
viability at 1000 µM (A-431 skin cancer cells; [12]): 4%
IC50 (A-431 skin cancer cells; Table 9.1): 71.8 µM
viability at 0.101 µM (T24 bladder cancer cells; T-24, 101 nM, 72 h, read-out: Cell survival at given concentration): 99%
viability at 0.318 µM (T24 bladder cancer cells; T-24, 318 nM, 72 h, read-out: Cell survival at given concentration): 102%
viability at 1 µM (T24 bladder cancer cells; T-24, 1 μM, 72 h, read-out: Cell survival at given concentration): 103%
viability at 3 µM (T24 bladder cancer cells; T-24, 3 μM, 72 h, read-out: Cell survival at given concentration): 94%
viability at 10 µM (T24 bladder cancer cells; T-24, 10 μM, 72 h, read-out: Cell survival at given concentration): 85%
viability at 32 µM (T24 bladder cancer cells; T-24, 32 μM, 72 h, read-out: Cell survival at given concentration): 35%
viability at 100 µM (T24 bladder cancer cells; T-24, 100 μM, 72 h, read-out: Cell survival at given concentration): 9%
viability at 316 µM (T24 bladder cancer cells; T-24, 316 μM, 72 h, read-out: Cell survival at given concentration): 8%
viability at 1000 µM (T24 bladder cancer cells; T-24, 1000 μM, 72 h, read-out: Cell survival at given concentration): 6%
IC50 (T24 bladder cancer cells; T-24, 72 h, Table 3.1, read-out: 1050): 22.8 µM
viability at 0.101 µM (AGS stomach cancer cells; 72 h, 101 nM, read-out: Cell survival at given concentration): 99%
viability at 0.318 µM (AGS stomach cancer cells; 72 h, 318 nM, read-out: Cell survival at given concentration): 100%
viability at 1 µM (AGS stomach cancer cells; 72 h, 1 μM, Table 10.1, read-out: Cell survival at given concentration): 103%
viability at 3 µM (AGS stomach cancer cells; 72 h, 3 μM, Table 10.1, read-out: Cell survival at given concentration): 106%
viability at 10 µM (AGS stomach cancer cells; 72 h, 10 μM, Table 10.1, read-out: Cell survival at given concentration): 106%
viability at 32 µM (AGS stomach cancer cells; 72 h, 32 μM, Table 10.1, read-out: Cell survival at given concentration): 77%
viability at 100 µM (AGS stomach cancer cells; 72 h, 100 μM, Table 10.1, read-out: Cell survival at given concentration): 29%
viability at 316 µM (AGS stomach cancer cells; 72 h, 316 μM, read-out: Cell survival at given concentration): 8%
viability at 1000 µM (AGS stomach cancer cells; 72 h, 1000 μM, read-out: Cell survival at given concentration): 3%
IC50 (AGS stomach cancer cells; Table 10.1): 68.2 µM
viability at 0.101 µM [3, 4]: 100%
viability at 0.318 µM [3, 5]: 98%
viability at 1 µM [3, 6]: 101%
viability at 3 µM [3, 7]: 97%
viability at 10 µM [3, 8]: 93%
viability at 32 µM [3, 9]: 29%
viability at 100 µM [3, 10]: 2%
viability at 316 µM [3, 11]: 6%
viability at 1000 µM [3, 12]: 1%
IC50 ([3]; Table 6.1): 23.8 µM
